Columns and labels:
[1] = tested on: CYP1A2; test: CYP 450-1A2 induction assay in cryopreserved human hepatocytes; assay type: in vitro ADME; settings: 10 μM test compound, 72 h, compared to vehicle control
Method: Cryopreserved human hepatocytes from a single donor are seeded on a 96 well collagen coated plate so that the final seeding density is 0.1×10^6 cells/well (final volume per well 0.1 mL). The cells are then incubated in seeding medium at 37° C., 95% humidity, 5% CO2 to allow the cells to attach. After 4 h, the seeding medium is replaced with 0.1 mL of pre warmed serum free Williams E medium containing 100 IU/mL penicillin, 100 μg/mL streptomycin, 10 μg/mL insulin, 2 mM L glutamine and 0.1 μM hydrocortisone.
The next day, cells are dosed with test compound in assay medium (final test compound concentration 10 μM; final DMSO concentration 0.1%). Positive control inducers, omeprazole (50 μM) for CYP1A2, phenobarbital (500 μM) for CYP2B6 and rifampicin (10 μM) for CYP3A4, are incubated alongside the test compound. Negative control wells are included where the test compound is replaced by vehicle solvent (0.1% DMSO in assay medium). Each test compound is dosed in triplicate. The cells are exposed to the solutions for 72 h with fresh solution added every 24 h.
For catalytic activity determination, a solution of the probe substrates, phenacetin (final concentration 25 μM), bupropion (final concentration 100 μM) and midazolam (final concentration 2.5 μM) is prepared in pre warmed assay medium. At the end of the 72 h exposure period, the media is replaced with the cocktail of probe substrates. The hepatocytes are incubated for 30 min. An aliquot is removed at the end of the incubation period and placed into methanol containing internal standard in a 1:2 ratio. The samples are centrifuged at 2500 rpm at 4° C. for 20 min. An aliquot of supernatant is diluted with deionised water and levels of acetaminophen, hydroxybupropion and 1 hydroxymidazolam are quantified using Cyprotex generic LC MS/MS methods.
The hepatocytes are solubilised in 0.1M sodium hydroxide at room temperature and protein content in each well determined using Pierce™ BCA Protein Assay Kit (Thermo Scientific) using bovine serum albumin as a standard.
For catalytic activity determination, the concentration of metabolite formed at each test compound replicate is converted to CYP activity and normalised to protein. The fold change is determined by comparing to the vehicle control wells. The fold change observed at each test compound concentration is expressed as a percentage of the positive control compounds for each P450 isoform.

[2] = target: T1, GPR17 (Homo sapiens, UniProt Q13304); settings: activating ligands for GPR17; cited from earlier work
Target sequence in this assay (Q13304 whole entry, species assumed): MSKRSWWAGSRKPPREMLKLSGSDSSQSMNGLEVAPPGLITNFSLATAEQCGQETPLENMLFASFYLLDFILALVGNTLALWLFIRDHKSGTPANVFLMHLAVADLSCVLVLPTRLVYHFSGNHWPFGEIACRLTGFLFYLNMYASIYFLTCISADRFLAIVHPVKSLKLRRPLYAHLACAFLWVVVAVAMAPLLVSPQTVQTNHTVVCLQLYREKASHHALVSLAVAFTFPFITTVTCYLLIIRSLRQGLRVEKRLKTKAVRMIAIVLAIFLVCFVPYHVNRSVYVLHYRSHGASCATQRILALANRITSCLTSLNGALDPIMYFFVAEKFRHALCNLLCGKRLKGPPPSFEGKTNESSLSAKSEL

[3] = target: T1, GPR17; test: cAMP accumulation functional assay (HTRF, Schild analysis vs MDL29,951); assay type: cell-based; design: host or cells: Flp-In T-REx CHO; settings: CHO hGPR17, Schild analysis against MDL29,951, activity range; read-out: cAMP assay pA2 (converted)
Method: Flp-In T-REx CHO cells stably expressing human GPR17 receptor (CHO hGPR17) from Evi Kostenis' lab (Bonn University, Germany) were cultured at 37° C. in a humidified atmosphere of 5% CO2. Cells were grown in DMEM with Nutrient Mixture F-12 supplemented with hygromycin B (500 μg/ml) and blasticidin (30 μg/ml). Expression from the Flp-In locus was induced by treatment with doxycycline (1 μg/ml) for 16-20 h prior assays.
GPR17 activation can also recruit Gi-type G-protein signaling, resulting in a decrease of intracellular cyclic adenosine monophosphate (cAMP). Intracellular cAMP changes can be measured using the HTRF cAMP dynamic assay kit from CisBio (Codolet, France). Using homogenous time-resolved fluorescence technology (HTRF), the assay is based on competition between native cAMP produced by cells and cAMP labelled with the dye d2. The tracer binding was determined by an anti-cAMP antibody labeled with cryptate.
CHO hGPR17 were detached with PBS containing EDTA and dispatched in black 384-well plates with 5,000 cells per well. Cells were first incubated for 30 minutes at room temperature in HBSS Hepes (pH 7.4) containing vehicle or varying concentrations of test GPR17 antagonist/inverse agonist compounds. Then, a dose response curve of MDL29,951 GPR17 agonist (typically from 10^−5 M to 10^−10 m) was added on vehicle and on each test GPR17 antagonist/inverse agonist compound concentration in a final volume of 20 μL HBSS Hepes buffer (pH 7.4) containing 1% DMSO, 5 μM forskolin and 0.1 mM IBMX. After 60 minutes incubation at room temperature, the reaction is terminated and the cells lysed by adding the d2 detection reagent and the cryptate reagent in 10 μL lysis buffer each according to manufacturer's instructions. After 60 minutes incubation, changes in cAMP concentrations are measured according to manufacturer's instructions using an Envision plate reader with laser excitation. All incubations were performed in duplicate. Data was analyzed using GraphPad Prism software using the 4-parameter logistic equation to measure MDL29,951 pEC50s in absence and presence of GPR17 antagonist/inverse agonist test compounds. Dose ratio (DR) were plotted against antagonist concentrations and Schild analysis provided estimated affinity pA2 of GPR17 antagonist/inverse agonist test compounds.
Target sequence in this assay (Q13304 whole entry): as the sequence (Q13304 whole entry, species assumed) above

Row | induction of CYP1A2 [1] | Kb [3] | Structure (SMILES) | amounts needed in the assays [2]
1 | 16 fold |  | O=S(=O)(Nc1nc(F)c(OCCF)cc1F)c1c[nH]c2cc(Cl)ccc12 [Comparative Example 1, 6-chloro-N-[3,6-difluoro-5-(2-fluoroethoxy)pyridin-2-yl]-1H-indole-3-sulfonamide, reference compound] | 
2 |  |  | NCC(=O)CCC(=O)O [Example 5-ALA, 5 amino levulinic acid] | three digit micromolar range
3 | no CYP1A2 induction | ≤ 3.16 nM | O=S(=O)(Nc1nc(F)c(OCCF)cc1F)c1c[nH]c2c(Cl)c(Cl)ccc12 [Example I-1, 6,7-dichloro-N-[3,6-difluoro-5-(2-fluoroethoxy)pyridin-2-yl]-1H-indole-3-sulfonamide] | 
4 | no CYP1A2 induction | ≤ 3.16 nM | O=S(=O)(Nc1nc(F)c(OCCF)cc1F)c1c[nH]c2c(OC3CC3)c(Cl)ccc12 [Example I-2, 6-chloro-7-cyclopropyloxy-N-[3,6-difluoro-5-(2-fluoroethoxy)pyridin-2-yl]-1H-indole-3-sulfonamide] | 
5 | no CYP1A2 induction | ≤ 3.16 nM | O=S(=O)(Nc1nc(F)c(OCCF)cc1F)c1c[nH]c2c(C(F)F)c(Cl)ccc12 [Example I-3, 6-chloro-N-[3,6-difluoro-5-(2-fluoroethoxy)pyridin-2-yl]-7-(difluoromethyl)-1H-indole-3-sulfonamide] | 
6 |  | 3.16 to 31.6 nM | O=S(=O)(Nc1ncc(OCCF)cc1F)c1c[nH]c2c(Cl)c(Cl)ccc12 [Example I-5, 6,7-dichloro-N-[3-fluoro-5-(2-fluoroethoxy)pyridin-2-yl]-1H-indole-3-sulfonamide] | 
7 |  | 3.16 to 31.6 nM | O=S(=O)(Nc1ncc(OCC(F)F)cc1F)c1c[nH]c2c(Cl)c(Cl)ccc12 [Example I-6, 6,7-dichloro-N-[5-(2,2-difluoroethoxy)-3-fluoropyridin-2-yl]-1H-indole-3-sulfonamide] | 
8 |  | 3.16 to 31.6 nM | O=S(=O)(Nc1ncc(OCCF)cc1F)c1c[nH]c2c(C(F)F)c(Cl)ccc12 [Example I-7, 6-chloro-7-(difluoromethyl)-N-[3-fluoro-5-(2-fluoroethoxy)pyridin-2-yl]-1H-indole-3-sulfonamide] | 
9 |  | > 31.6 nM | O=S(=O)(Nc1ncc(OCCF)cc1F)c1c[nH]c2c(F)c(C(F)F)ccc12 [Example I-8, 6-(difluoromethyl)-7-fluoro-N-[3-fluoro-5-(2-fluoroethoxy)pyridin-2-yl]-1H-indole-3-sulfonamide] | 
10 |  | ≤ 3.16 nM | O=S(=O)(Nc1nc(F)c(OCCF)cc1F)c1c[nH]c2c(F)c(Cl)ccc12 [Example I-10, 6-chloro-N-[3,6-difluoro-5-(2-fluoroethoxy)pyridin-2-yl]-7-fluoro-1H-indole-3-sulfonamide] | 
11 |  | ≤ 3.16 nM | O=S(=O)(Nc1nc(F)c(OCC(F)F)cc1F)c1c[nH]c2c(F)c(Cl)ccc12 [Example I-11, 6-chloro-N-[5-(2,2-difluoroethoxy)-3,6-difluoropyridin-2-yl]-7-fluoro-1H-indole-3-sulfonamide] | 
12 | no CYP1A2 induction | 3.16 to 31.6 nM | O=S(=O)(Nc1nc(F)c(OCCF)cc1F)c1c[nH]c2c(C3CC3)c(Cl)ccc12 [Example I-12, 6-chloro-7-cyclopropyl-N-[3,6-difluoro-5-(2-fluoroethoxy)pyridin-2-yl]-1H-indole-3-sulfonamide] | 
13 |  | ≤ 3.16 nM | COc1nc(NS(=O)(=O)c2c[nH]c3c(Cl)c(Cl)ccc23)c(F)cc1OCC(F)F [Example I-13, 6,7-dichloro-N-[5-(2,2-difluoroethoxy)-3-fluoro-6-methoxypyridin-2-yl]-1H-indole-3-sulfonamide] | 
14 |  | 3.16 to 31.6 nM | O=S(=O)(Nc1ncc(OCC(F)F)cc1F)c1c[nH]c2c(C(F)F)c(Cl)ccc12 [Example I-14, 6-chloro-N-[5-(2,2-difluoroethoxy)-3-fluoropyridin-2-yl]-7-(difluoromethyl)-1H-indole-3-sulfonamide] | 
15 |  | ≤ 3.16 nM | COc1nc(NS(=O)(=O)c2c[nH]c3c(C(F)F)c(Cl)ccc23)c(F)cc1OCC(F)F [Example I-15, 6-chloro-N-[5-(2,2-difluoroethoxy)-3-fluoro-6-methoxypyridin-2-yl]-7-(difluoromethyl)-1H-indole-3-sulfonamide] | 
16 |  | ≤ 3.16 nM | COc1cc(OC(F)F)cnc1NS(=O)(=O)c1c[nH]c2c(Cl)c(Cl)ccc12 [Example I-16, 6,7-dichloro-N-[5-(difluoromethoxy)-3-methoxypyridin-2-yl]-1H-indole-3-sulfonamide] | 
17 |  | 3.16 to 31.6 nM | COc1cc(OC(F)F)cnc1NS(=O)(=O)c1c[nH]c2c(C(F)F)c(Cl)ccc12 [Example I-17, 6-chloro-N-[5-(difluoromethoxy)-3-methoxypyridin-2-yl]-7-(difluoromethyl)-1H-indole-3-sulfonamide] | 
18 |  | 3.16 to 31.6 nM | O=S(=O)(Nc1nc(F)c(OCCF)cc1F)c1c[nH]c2c(OC(F)(F)F)c(Cl)ccc12 [Example I-18, 6-chloro-N-[3,6-difluoro-5-(2-fluoroethoxy)pyridin-2-yI]-7-(trifluoromethoxy)-1H-indole-3-sulfonamide] | 
19 |  | > 31.6 nM | O=S(=O)(Nc1ncc(OCC(F)F)cc1F)c1c[nH]c2c(F)c(C(F)F)ccc12 [Example I-19, N-[5-(2,2-difluoroethoxy)-3-fluoropyridin-2-yl]-6-(difluoromethyl)-7-fluoro-1H-indole-3-sulfonamide] | 
20 |  | ≤ 3.16 nM | COc1nc(NS(=O)(=O)c2c[nH]c3c(Cl)c(C(F)F)ccc23)c(F)cc1OCC(F)F [Example I-20, 7-chloro-N-[5-(2,2-difluoroethoxy)-3-fluoro-6-methoxypyridin-2-yl]-6-(difluoromethyl)-1H-indole-3-sulfonamide] | 
21 |  | 3.16 to 31.6 nM | COc1cc(OCC(F)F)cnc1NS(=O)(=O)c1c[nH]c2c(Cl)c(Cl)ccc12 [Example I-21, 6,7-dichloro-N-[5-(2,2-difluoroethoxy)-3-methoxypyridin-2-yl]-1H-indole-3-sulfonamide] | 
22 |  | ≤ 3.16 nM | COc1nc(NS(=O)(=O)c2c[nH]c3c(F)c(Cl)ccc23)c(F)cc1OCC(F)F [Example I-22, 6-chloro-N-[5-(2,2-difluoroethoxy)-3-fluoro-6-methoxypyridin-2-yl]-7-fluoro-1H-indole-3-sulfonamide] | 
23 |  | ≤ 3.16 nM | COc1nc(NS(=O)(=O)c2c[nH]c3c(F)c(Cl)ccc23)c(F)cc1OCCOC(F)F [Example I-23, 6-chloro-N-[5-[2-(difluoromethoxy)ethoxy]-3-fluoro-6-methoxypyridin-2-yl]-7-fluoro-1H-indole-3-sulfonamide] | 
24 |  |  | NCc1[nH]cc(CCC(=O)O)c1CC(=O)O [PBG, porphobilinogen] | mM range

Reference: US11976056B2, “Substituted alkoxypyridinyl indolsulfonamides” (UCB Pharma GmbH, priority 2018, dated 2024)
